Experimental data taken from the NIST ThermoML archive (doi:10.1021/je2000952).

Details: Liquid, Closed cell (Static) method

FCC(F)(F)F [1,1,1,2-tetrafluoroethane]
Details | vapor or sublimation pressure [kPa]
283.13 K | 414.4
293.14 K | 571.1
303.12 K | 769.2
313.11 K | 1014.9
323.17 K | 1318.5
333.16 K | 1681.1
343.16 K | 2117.3

C=C(F)C(F)(F)F [2,3,3,3-tetrafluoro-1-propene]
Details | vapor or sublimation pressure [kPa]
245.65 K | 110.3
248.15 K | 122.6
250.65 K | 136.1
253.15 K | 150.7
255.65 K | 166.4
258.15 K | 183.6
260.65 K | 201.9
263.15 K | 221.6
265.65 K | 242.5
268.15 K | 265.2
270.65 K | 289.7
273.15 K | 315.7
275.65 K | 343.3
278.15 K | 372.8
280.65 K | 404.1
283.15 K | 437.4
285.65 K | 472.9
288.15 K | 510.3
290.65 K | 549.9
293.16 K | 591.8
295.65 K | 636
298.16 K | 682.7
300.66 K | 731.9
303.16 K | 783.6
305.66 K | 838.1
308.16 K | 895.3
310.66 K | 955.5
313.16 K | 1018.5
315.66 K | 1084
318.16 K | 1153.4
320.66 K | 1225.8
323.16 K | 1301.6
325.65 K | 1381
328.15 K | 1463.9
330.66 K | 1550.6
333.16 K | 1641.1
335.66 K | 1735.7
338.16 K | 1833.9
340.66 K | 1936.6
343.15 K | 2043.7
